Laboratory results as given in US6770787B2, “Heavier halogen atom substituted squaraine based dyes, process for the preparation thereof and use thereof as sensitizers for photodynamic, therapeutical and industrial applications” (priority 2001, dated 2004).
Where two headings read alike, the source gives them in different places.

What was measured:
PM2 DNA [1] = assay: plasmid DNA cleavage (DNA relaxation assay, single strand breaks) by dye plus light; format: biochemical; settings: SSB in phosphate buffer pH 7.4 without additive = 100%
PM2 DNA [2] = assay: as above; format: biochemical; settings: for Relative number of single strand breaks (%): SSB in phosphate buffer pH 7.4 without additive = 100%; for fold enhancement in the cleavage of DNA: in D2O
Description: The mechanism of in vitro photodynamic activity of squaraines has been evaluated in detail by using plasmid DNA (PM2 DNA) and investigating the cleavage of DNA under a variety of conditions. Cleavage of DNA cleavage was followed by monitoring the conversion of supercoiled (Form I) to open circular (Form II) and linear forms (Form III). Induction of one single strand break by a compound/agent converts Form I to Form II and the quantification of these forms by DNA relaxation assay as described previously (Epe, B.; Hegler, J. J. Methods Enzymol. 1994, 234, 122) indicates its efficiency of DNA cleavage. Plasmid DNA cleavage is a very sensitive technique, which can be used to test the various properties of sensitizers and the DNA damage profiles obtained by using scavengers and activators can serve as a kind of fingerprint of the species directly responsible for the damage and also provide the information on the mechanism of in vitro photodynamic activity.
PM2 DNA (10,000 bp, 10 μg/mL) exposed to squaraine dyes plus light from a 1000 W halogen lamp (Philips PF811) at a distance of 33 cm in phosphate buffer (5 mM KH2PO4, 50 mM NaCl, pH 7.4) on ice. The modified DNA was precipitated by ethanol/sodium acetate and quantified the single strand breaks (SSB) by DNA relaxation assay. Superoxide dismutase (SOD) (20 μg/ml), catalase (315 U/ml) were added or the H2O in the buffer was replaced by D2O (the final isotope purity was greater than 96%) to have a better understanding of the active species involved. The results of these studies with representative squaraine based dyes bis(3,5-dibromo-2,4,6-trihydroxyphenyl)squaraine and bis(3,5-diiodo-2,4,6-trihydroxyphenyl)squaraine are shown in TABLE 2.

AS52 cells [3] = assay: cell killing efficiency (cytotoxicity) with and without light; format: cell-based; settings: for cytotoxicity (cell survival): in the dark; for cell killing efficiency (% of cell survival): under illumination conditions, increasing concentration
Method: To measure the cell killing efficiency (cytotoxicity) of squaraine based sensitizers with and without light, AS52 cells were exposed to various concentrations of sensitizer. The light exposure was carried out from a 1000 W halogen lamp at a distance of 33 cm in Ca^2+ and Mg^2+ free PBS (140 mM NaCl, 3 mM KCl, 8 mM Na2HPO4, pH 7.4) on ice (10^6 cells/ml). […] The cells were pelleted by centrifugation and resuspended in PBSG three times. The cells were resuspended at 3×10^4 cells/ml in fresh medium at 37° C. and the number of cells were counted repeatedly for 60 h. From the exponential part of the growth curves (between 24 and 60 h), the number of poliferating cells at the time of resuspension was calculated by extrapolation. Cell survival was defined as the ratio between proliferating and resuspended cells.

[4] = photosensitized singlet oxygen generation in presence and absence of polyvinylpyrrolidone; format: physicochemical
Description: Because triplet excited states were the major transient intermediates obtained upon 532 nm laser flash photolysis studies of bis(3,5-dibromo-2,4,6-trihydroxyphenyl)squaraine and bis(3,5-diiodo-2,4,6-trihydroxyphenyl)squaraine, the efficiency of photosensitized singlet oxygen generation by these systems have been examined, since singlet oxygen is the main cytotoxic agent of the type II reactions in photodynamic therapy. Since singly deprotonated forms of bis(3,5-dibromo-2,4,6-trihydroxyphenyl)squaraine and bis(3,5-diiodo-2,4,6-trihydroxyphenyl)squaraine, have significant triplet yields and have long lifetimes (Ramaiah, D; Joy, A.; Chandrasekhar, N; Eldho, N. V.; Das, S.; George, M. V. Photochem. Photobiol. 1997, 65, 783), moreover these are the forms that are expected to be the predominant species under the biological pH conditions (around 7.4). The first level characterization of these dyes for using them as sensitizers in photodynamic therapy, we have investigated their efficiency of singlet oxygen generation in presence of drug carriers, membrane mimics and microheterogeneous media. Results obtained in presence of polyvinylpyrrolidone (PVP) using bis(3,5-dibromo-2,4,6-trihydroxyphenyl)squaraine and bis(3,5-diiodo-2,4,6-trihydroxyphenyl)squaraine are shown in TABLE 1.

[5] = stability under irradiation conditions (photobleaching) in buffer; format: physicochemical; settings: for Absorbance: 1000 W halogen lamp; for photobleaching: within 5 min of irradiation, buffer pH 7.4
Method: (§1) The information about the stability of the sensitizer in presence and absence of light is important for its practical use. Therefore, the stability of these dyes in presence and absence of light in ethanol and phosphate buffer at physiological pH conditions (pH 7.4) at 25° C. was studied by following the absorbance change using spectrophotometry. The results of change in absorbance vs time in the dark with representative squaraine based dyes bis(3,5-dibromo-2,4,6-trihydroxyphenyl)squaraine and bis(3,5-diiodo-2,4,6-trihydroxyphenyl)squaraine are shown in TABLE 3.
Compound bis(3,5-diiodo-2,4,6-trihydroxyphenyl)squaraine undergoes very fast photobleaching (nearly 50% within 5 min of irradiation), when compared to bis(3,5-dibromo-2,4,6-trihydroxyphenyl)squaraine (25%). The photobleaching was increased with the time of irradiation in both the cases. While photobleaching might be thought to be disadvantageous property in a tumor photosensitizer, but it has potential benefits since dosage can be adjusted to keep the photosensitizer in tumor at effective levels. Moreover because of their fast photobleaching, a patient after the photodynamic treatment is not required to stay in the dark for long periods of time and if required therapy can be repeated frequently with short intervals of time.

[6] = stability in the dark in ethanol and phosphate buffer (absorbance change); format: physicochemical; settings: for Absorbance: 25° C.
Method: as §1

AS52 cells [7] = assay: mutagenicity, gpt locus, 6-thioguanine resistant cells; format: cell-based
Method: The mutagenic properties of squaraine based sensitizers was measured in AS52 cells, which carry the bacterial guanine phosphoribosyltraiisferase (gpt) gene as a selection marker that confers sensitivity to 6-thioguanine. AS52 cells were cultured in cleansing medium containing 11 μg/ml xanthine 219 μg/ml xanthine, 22 μg/ml adenine, 1.2 μg/ml aminopterin and 8.8 μg/ml mycophenolic acid) for one week to eliminate spontaneous gpt mutants. […] During this time, exponential growth of cells was maintained. 2×10^5 cells were diluted in 10 ml culture medium and plated in petri dishes (94 mm) After 2 h, 6-thioguanine was added to each plate (final concentration 2.5 μg/ml) for selection. 200 cells were added in 5 ml culture medium and plated in petri dishes (60 mm) to determine the cloning efficiencies. The plates were incubated for 7 to 9 days. The medium was replaced by NaCl solution (0.9% v/v), the cell colonies were fixed with methanol (−20° C.) for 15 min and stained with Giemsa (10% in H2O) for 15 min. The subsequent quantification of 6-thioguanine resistant cells and the determination of cytotoxicity (ratio of the plating efficiences of treated and untreated cells) directly after exposure to squaraines plus light carried out according to the protocol (Tindall, K. R.; Stankowski Jr. L. F.; Machanoff, R.; Hsie, A. W. Mutat. Res. 1986, 160, 121-131).

[8] = solubility at physiological pH; settings: physiological pH conditions
AS52 cells [9] = assay: induction of micronuclei; format: cell-based
Method: Further to understand the genetic effects, the micronuclei induced by bis(3,5-dibromo-2,4,6-trihydroxyphenyl)squaraine and bis(3,5-diiodo-2,4,6-trihydroxyphenyl)squaraine were also quantified in AS52 cells. AS52 cells were exposed to squaraines as described above and resuspended in full medium. After incubation for 24 h at 39° C., approximately 1×10^5 cells were fixed on a microscope slide by cytospin-centrifugation and treatment with methanol for 1 h at −21° C. After staining with bisbenzimide for 3 min in PBS (without Ca2+ and Mg2+), 2000 cells were examined for the presence of micronuclei with a fluorescent microscope.

[10] = buffer pH 7.4, irradiation time 0 min
[11] = buffer pH 7.4, irradiation time 5 min
[12] = buffer pH 7.4, irradiation time 10 min
[13] = buffer pH 7.4, irradiation time 15 min
[14] = buffer pH 7.4, irradiation time 20 min
[15] = buffer pH 7.4, irradiation time 30 min

| SMILES | Relative number of single strand breaks (%) (PM2 DNA [1]; PH 7.8) | Relative number of single strand breaks (%) (PM2 DNA [1]; pH 7.0) | Relative number of single strand breaks (%) (PM2 DNA [2]; Catalase (315 U/mL)) | Relative number of single strand breaks (%) (PM2 DNA [2]; D2O Buffer) | Relative number of single strand breaks (%) (PM2 DNA [2]; SOD (20 g/mL)) | fold enhancement in the cleavage of DNA (PM2 DNA [2]) | cytotoxicity (cell survival) (AS52 cells [3]) | cell killing efficiency (% of cell survival) (AS52 cells [3]) | singlet oxygen quantum yields ([4]; PVP 0 mM) | singlet oxygen quantum yields ([4]; PVP 14 mM) | Absorbance [5, 10] | Absorbance [5, 11] | Absorbance [5, 12] | Absorbance [5, 13] | Absorbance [5, 14] | Absorbance [5, 15] | photobleaching [5] | Absorbance ([6]; buffer pH 7.4, dark, 0 min) | Absorbance ([6]; buffer pH 7.4, dark, 30 min) | Absorbance ([6]; buffer pH 7.4, dark, 60 min) | other results |
| --- | --- | --- | --- | --- | --- | --- | --- | --- | --- | --- | --- | --- | --- | --- | --- | --- | --- | --- | --- | --- | --- |
| O=C1C(Br)=C(O)C(=C2C(=O)C(c3c(O)c(Br)c(O)c(Br)c3O)=C2O)C(O)=C1Br [bis(3,5-dibromo-2,4,6-trihydroxyphenyl)squaraine] | 105 ± 4% | 127 ± 12% | 115 ± 5% | 526 ± 28% | 109 ± 5% | Nearly five | no significant effect | high cell killing efficiency | 0.13 ± 0.005 | 0.29 ± 0.001 | 1.8 | 1.35 | 1.30 | 1.25 | 1.17 | 1.10 | 25% | 1.84 | 1.72 | 1.65 | stability in the dark [6]: very stable; Absorbance ([6]; buffer pH 7.4, dark, 90 min): 1.61; Absorbance ([6]; ethanol, dark, 0 min): 1.90; Absorbance ([6]; ethanol, dark, 30 min): 1.88; Absorbance ([6]; ethanol, dark, 60 min): 1.88; Absorbance ([6]; ethanol, dark, 90 min): 1.88; induction of mutations (6-thioguanine resistant cells) (AS52 cells [7]): do not induce immediate mutations; solubility [8]: good solubility; induction of micronuclei (AS52 cells [9]): do not induce significant amounts of micronuclei |
| O=C1C(I)=C(O)C(=C2C(=O)C(c3c(O)c(I)c(O)c(I)c3O)=C2O)C(O)=C1I [bis(3,5-diiodo-2,4,6-trihydroxyphenyl)squaraine] | 109 ± 22% | 134 ± 9% | 92 ± 6% | 614 ± 97% | 100 ± 2% | six fold | no significant effect | high cell killing efficiency | 0.47 ± 0.017 | 0.62 ± 0.007 | 1.72 | 0.87 | 0.74 | 0.65 | 0.58 | 0.47 | ~50% | 1.35 | 1.47 | 1.38 | increase in efficiency of singlet oxygen generation ([4]; in microheterogeneous media compared with methanol): ~15%; Absorbance ([6]; buffer pH 7.4, dark, 90 min): 1.36; stability in the dark ([6]; buffer solutions at pH 7.4, 90 min): slight bleaching; stability in the dark ([6]; ethanol): very stable; induction of mutations (6-thioguanine resistant cells) (AS52 cells [7]; in presence and absence of light): do not induce immediate mutations; cytotoxicity (ratio of plating efficiencies) (AS52 cells [7]; in presence of light): severe cytotoxicity; solubility [8]: good solubility; induction of micronuclei (AS52 cells [9]; in presence and absence of light, 24 h incubation): do not induce significant amounts of micronuclei |
